Key:
rape = experiment: Test B pre/postemergence rape; type: in vivo, Brassica napus
Method in brief: (§1)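 Response is a visual 0-to-10 score relative to untreated plants, where 0 means no effect and 10 means complete control, taken twelve to sixteen days after application. Treatments went onto soil at planting and onto foliage of 1- to 4-leaf plants, using a surfactant-containing non-phytotoxic solvent.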

purple nutsedge = experiment: Test B pre/postemergence purple nutsedge; type: in vivo, Cyperus rotundus
Method in brief: as §1

smallflower flatsedge = experiment: Test B flood test smallflower flatsedge; type: in vivo, Cyperus difformis
Method in brief: (§2)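 Read-out is a visual response score from 0 (no effect) to 10 (complete control), assigned by comparison with untreated controls. Treatment was applied at the 2-leaf stage, and plants stayed in the greenhouse for twelve to sixteen days before scoring.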

velvetleaf = experiment: Test B pre/postemergence velvetleaf; type: in vivo, Abutilon theophrasti
Method in brief: as §1

soybean = experiment: Test B pre/postemergence soybean; type: in vivo, Glycine max
Method in brief: as §1

bamyardgrass = experiment: Test B flood test barnyardgrass; type: in vivo, Echinochloa crus-galli
Method in brief: as §2

bedstraw = experiment: Test B pre/postemergence bedstraw; type: in vivo, Galium aparine
Method in brief: as §1

rice = experiment: Test B flood test rice; type: in vivo, Oryza sativa
Method in brief: as §2

wheat = experiment: Test B pre/postemergence wheat; type: in vivo, Triticum aestivum
Method in brief: as §1

giant foxtail = experiment: Test B pre/postemergence giant foxtail; type: in vivo, Setaria faberii
Method in brief: as §1

sugar beet = experiment: Test B pre/postemergence sugar beet; type: in vivo, Beta vulgaris
Method in brief: as §1

blackgrass = experiment: Test B pre/postemergence blackgrass; type: in vivo, Alopecurus myosuroides
Method in brief: as §1

morningglory = experiment: Test B pre/postemergence morningglory; type: in vivo, Ipomoea hederacea
Method in brief: as §1

duck salad = experiment: Test B flood test duck salad; type: in vivo, Heteranthera limosa
Method in brief: as §2

pigweed = experiment: Test B pre/postemergence pigweed; type: in vivo, Amaranthus retroflexus
Method in brief: as §1

wild oat = experiment: Test B pre/postemergence wild oat; type: in vivo, Avena fatua
Method in brief: as §1

[1] = Postemergence, Rate 62 g/ha, scale 0 to 10, 0 is no effect, 10 is complete control
[2] = Postemergence, Rate 250 g/ha, scale 0 to 10, 0 no effect, 10 complete control
[3] = Preemergence, Rate 62 g/ha, scale 0 to 10, 0 is no effect, 10 is complete control
[4] = Preemergence, Rate 125 g/ha, scale 0 to 10 (0 no effect, 10 complete control)
[5] = Preemergence, Rate 250 g/ha, scale of 0 to 10 where 0 is no effect and 10 is complete control
[6] = Preemergence, Rate 500 g/ha, scale 0 (no effect) to 10 (complete control)
[7] = Rate 125 g/ha, Postemergence, scale 0 to 10, 0 no effect, 10 complete control
[8] = Rate 500 g/ha, Postemergence, 0 to 10 scale (0 no effect, 10 complete control)
[9] = Rate 125 g/ha, Postemergence section (flood test species), scale 0 to 10, 0 no effect, 10 complete control
[10] = flood test, listed under Postemergence, Rate 250 g/ha, scale 0 to 10, 0 no effect, 10 complete control
[11] = Rate 500 g/ha, Postemergence section of Table B, 0 to 10 scale (0 no effect, 10 complete control)

CC(C)N(C(=O)n1oc(=O)n(-c2ccccc2C(F)(F)F)c1=O)c1ccc(F)cc1 [Compound 15]
7: Bedstraw plant response rating (bedstraw; [6]) | Morningglory plant response rating (morningglory; [8])
4: Bedstraw plant response rating (bedstraw; [8])
3: Plant response rating, Sugarbeets (sugar beet; [5]) | Blackgrass plant response rating (blackgrass; [8])
2: Soybean plant response rating (soybean; [1]) | Soybean plant response rating (soybean; [2]) | Soybean plant response rating (soybean; [7]) | Morningglory plant response rating (morningglory; [1]) | Morningglory plant response rating (morningglory; [7]) | Redroot pigweed plant response rating (pigweed; [2])
10: Giant foxtail plant response rating (giant foxtail; [6])
8: Plant response rating, Giant foxtail (giant foxtail; [4]) | Redroot pigweed plant response rating (pigweed; [6])
6: Plant response rating, Giant foxtail (giant foxtail; [3]) | Sugarbeets plant response rating (sugar beet; [6]) | Morningglory plant response rating (morningglory; [2]) | Redroot pigweed plant response rating (pigweed; [8])
0: Rape plant response rating (rape; [1]) | Rape plant response rating (rape; [2]) | Plant response rating, Rape (rape; [3]) | Plant response rating, Rape (rape; [4]) | Plant response rating, Rape (rape; [5]) | Rape plant response rating (rape; [6]) | Rape plant response rating (rape; [7]) | Rape plant response rating (rape; [8]) | Nutsedge plant response rating (purple nutsedge; [1]) | Nutsedge plant response rating (purple nutsedge; [2]) | Plant response rating, Nutsedge (purple nutsedge; [3]) | Plant response rating, Nutsedge (purple nutsedge; [4]) | Nutsedge plant response rating (purple nutsedge; [6]) | Nutsedge plant response rating (purple nutsedge; [7]) | Nutsedge plant response rating (purple nutsedge; [8]) | S. Flatsedge plant response rating (smallflower flatsedge; [1]) | S. Flatsedge plant response rating (smallflower flatsedge; [9]) | S. Flatsedge plant response rating (smallflower flatsedge; [10]) | Velvetleaf plant response rating (velvetleaf; [1]) | Velvetleaf plant response rating (velvetleaf; [2]) | Plant response rating, Velvetleaf (velvetleaf; [3]) | Plant response rating, Velvetleaf (velvetleaf; [4]) | Velvetleaf plant response rating (velvetleaf; [6]) | Velvetleaf plant response rating (velvetleaf; [7]) | Plant response rating, Soybean (soybean; [3]) | Plant response rating, Soybean (soybean; [4]) | Soybean plant response rating (soybean; [6]) | Barnyardgrass plant response rating (bamyardgrass; [1]) | Barnyardgrass plant response rating (bamyardgrass; [9]) | Barnyardgrass plant response rating (bamyardgrass; [11]) | Barnyardgrass plant response rating (bamyardgrass; [10]) | Bedstraw plant response rating (bedstraw; [1]) | Bedstraw plant response rating (bedstraw; [2]) | Plant response rating, Bedstraw (bedstraw; [3]) | Plant response rating, Bedstraw (bedstraw; [4]) | Plant response rating, Bedstraw (bedstraw; [5]) | Bedstraw plant response rating (bedstraw; [7]) | Rice plant response rating (rice; [1]) | Rice plant response rating (rice; [9]) | Rice plant response rating (rice; [11]) | Rice plant response rating (rice; [10]) | Wheat plant response rating (wheat; [1]) | Wheat plant response rating (wheat; [2]) | Plant response rating, Wheat (wheat; [3]) | Plant response rating, Wheat (wheat; [4]) | Plant response rating, Wheat (wheat; [5]) | Wheat plant response rating (wheat; [6]) | Wheat plant response rating (wheat; [7]) | Giant foxtail plant response rating (giant foxtail; [1]) | Giant foxtail plant response rating (giant foxtail; [2]) | Giant foxtail plant response rating (giant foxtail; [7]) | Giant foxtail plant response rating (giant foxtail; [8]) | Sugarbeets plant response rating (sugar beet; [1]) | Sugarbeets plant response rating (sugar beet; [2]) | Plant response rating, Sugarbeets (sugar beet; [3]) | Plant response rating, Sugarbeets (sugar beet; [4]) | Sugarbeets plant response rating (sugar beet; [7]) | Blackgrass plant response rating (blackgrass; [1]) | Blackgrass plant response rating (blackgrass; [2]) | Plant response rating, Blackgrass (blackgrass; [3]) | Plant response rating, Blackgrass (blackgrass; [4]) | Plant response rating, Blackgrass (blackgrass; [5]) | Blackgrass plant response rating (blackgrass; [6]) | Blackgrass plant response rating (blackgrass; [7]) | Plant response rating, Morningglory (morningglory; [3]) | Plant response rating, Morningglory (morningglory; [4]) | Morningglory plant response rating (morningglory; [6]) | Ducksalad plant response rating (duck salad; [1]) | Ducksalad plant response rating (duck salad; [9]) | Ducksalad plant response rating (duck salad; [11]) | Ducksalad plant response rating (duck salad; [10]) | Redroot pigweed plant response rating (pigweed; [1]) | Plant response rating, Redroot pigweed (pigweed; [3]) | Plant response rating, Redroot pigweed (pigweed; [4]) | Plant response rating, Redroot pigweed (pigweed; [5]) | Redroot pigweed plant response rating (pigweed; [7]) | Wild oats plant response rating (wild oat; [1]) | Wild oats plant response rating (wild oat; [2]) | Plant response rating, Wild oats (wild oat; [4]) | Plant response rating, Wild oats (wild oat; [5]) | Wild oats plant response rating (wild oat; [6]) | Wild oats plant response rating (wild oat; [7])
